{"source": "paper PMC9841593", "about": "(ACS Medicinal Chemistry Letters, 2022)", "assay": "pH-metric titration of pKa"}
{"smiles": "O=C(O)c1[nH]c(Br)cc(=O)c1O", "note": "[Compound 2]", "values": [{"measurement": "Measured pKa", "setting": "phenolic proton, pH-metric titration", "result": "9.79 ± 0.01"}]}
{"smiles": "NC(=O)c1[nH]c(Br)cc(=O)c1O", "note": "[Compound 3]", "values": [{"measurement": "pKa", "result": "9.64 ± 0.02"}]}
{"smiles": "O=c1cc(Br)[nH]c(-c2nnn[nH]2)c1O", "note": "[Compound 4]", "values": [{"measurement": "pKa", "result": "> 12"}]}
{"smiles": "N/C(=N\\O)c1[nH]c(Br)cc(=O)c1O", "note": "[Compound 6]", "values": [{"measurement": "pKa", "result": "9.06 ± 0.02"}]}
